Data set [1] can be described thus: solubility in aqueous solution. Format: physicochemical. As to conditions: water; compared with azithromycin; read-out: maximum concentration in water. An excerpt: Formulations containing azithromycin at concentration ranging from 0.01 to 10% w/v, more particularly between 0.3 and 5% w/v, are the most preferred.
Data set [2] is described as follows: titration of azithromycin and clarithromycin, dispersed in water, with citric acid (FIG. 1, FIG. 2). Format: physicochemical. To be noted: titration with citric acid.

The structures appear in SMILES notation.

Turning to `CC[C@H]1OC(=O)[C@H](C)[C@@H](O[C@H]2C[C@@](C)(OC)[C@@H](O)[C@H](C)O2)[C@H](C)[C@@H](O[C@@H]2O[C@H](C)C[C@H](N(C)C)[C@H]2O)[C@](C)(OC)C[C@@H](C)C(=O)[C@H](C)[C@@H](O)[C@]1(C)O` [clarithromycin], the solubility in data set [1] is below 20 mg/mL. In addition, the equivalent point in data set [2] is given as around 4.5 pH.
